From patent publication US20200181132A1, “QUINOXALINE AND PYRIDOPYRAZINE DERIVATIVES AS PI3K-BETA INHIBITORS” (JANSSEN PHARMACEUTICA NV, priority 2017, published 2020)
Read-outs that look alike come from different tables or passages of the source.

Key:
[1] = molecular target: T1, PIK3Cγ_h (Homo sapiens, UniProt P48736); assay: Enzyme binding assay (KINOMEscan), PIK3Cγ; settings: DiscoveRx
T1 construct: purchased DiscoveRx Corporation
Description: (§1) Enzyme Binding Assays (KINOMEscan®)
(§2) Kinase enzyme binding affinities of compounds disclosed herein were determined using the KINOMEscan technology performed by DiscoveRx Corporation, San Diego, Calif., USA (www.kinomescan.com). Table A reports the obtained Kd values (nM), with the Kd being the inhibitor binding constant: […]

[2] = test system: phosphorylation of Akt at Ser473 in PC-3 cells; assay: Cellular assay: phospho-Akt (Ser473) MSD ELISA in PC-3 cells; format: cell-based; settings: 60 min incubation with compound, read-out: IC50 pAkt_S473
Description: (§3) Cellular activity of PI3Kβ inhibitors was determined by quantifying the phosphorylation of Akt in PC-3 cells. Akt phosphorylated at Ser473 and Thr308 were measured using an enzyme-linked immunosorbent assay (ELISA; Meso Scale Discovery (MSD), Gaithersburg, Md.) and specific primary antibodies from MSD.
(§4) On day 1, PC3 cells (ATCC # […]) were seeded into PerkinElmer MW96 plates at 25.000 cells per well, in 75 μl complete culture medium (DMEM high glucose, AQmedia™, D0819, Sigma-Aldrich) containing 10% heat inactivated FCS and incubated at 37° C., 5% CO2 during 24 hours. On day 2, compound or DMSO (0.3%) was added and cells were further incubated for 60 min at 37° C., 5% CO2 in a total volume of 100 μl of medium.
(§5) The phosphoprotein assay was executed according to vendor instructions in the Phospho-Akt (Ser473) Assay Whole Cell Lysate Kit (MSD # K15100D-3) and the Phospho-Akt (Thr308) Assay Whole Cell Lysate Kit (MSD # K151DYD-3) using the lysis, blocking and wash buffer provided.
(§6) Briefly, at the end of the cell treatment period, media were removed by aspiration and adherent cells were lysed in 50 μl ice-cold lysis buffer. MSD plates are supplied pre-coated with capture antibodies for Phospho-Akt (Ser473 and Thr308). After blocking, lysates from tissue culture plates were added and plates were washed. Then, a solution containing the detection antibody (anti-total Akt conjugated with an electrochemiluminescent compound-MSD Sulfo-tag label) was added. The signals were detected using an MSD SECTOR Imager 6000 and are proportional to the phospho-Akt titres.
(§7) Data were processed. The percentage of inhibition was plotted against the log concentration of test compounds, and the sigmoidal log concentration-effect curve of best fit was calculated by nonlinear regression analysis. From these concentration-response curves, the IC50 values were calculated. Five concentrations were used for curve fitting.

[3] = molecular target: T2, PIK3Cβ_h (Homo sapiens, UniProt P42338); assay: Enzyme binding assay (KINOMEscan), PIK3Cβ; settings: DiscoveRx
T2 construct: purchased DiscoveRx Corporation
Description: as §1, §2

[4] = test system: phosphorylation of Akt at Thr308 in PC-3 cells; assay: Cellular assay: phospho-Akt (Thr308) MSD ELISA in PC-3 cells; format: cell-based; settings: 60 min incubation with compound, read-out: IC50 pAkt_Thr308
Description: as §3, §4, §5, §6, §7

[5] = molecular target: T3, PIK3Cδ_h (Homo sapiens, UniProt O00329); assay: Enzyme binding assay (KINOMEscan), PIK3Cδ; settings: DiscoveRx
T3 construct: purchased DiscoveRx Corporation
T3 sequence (O00329 1-1044): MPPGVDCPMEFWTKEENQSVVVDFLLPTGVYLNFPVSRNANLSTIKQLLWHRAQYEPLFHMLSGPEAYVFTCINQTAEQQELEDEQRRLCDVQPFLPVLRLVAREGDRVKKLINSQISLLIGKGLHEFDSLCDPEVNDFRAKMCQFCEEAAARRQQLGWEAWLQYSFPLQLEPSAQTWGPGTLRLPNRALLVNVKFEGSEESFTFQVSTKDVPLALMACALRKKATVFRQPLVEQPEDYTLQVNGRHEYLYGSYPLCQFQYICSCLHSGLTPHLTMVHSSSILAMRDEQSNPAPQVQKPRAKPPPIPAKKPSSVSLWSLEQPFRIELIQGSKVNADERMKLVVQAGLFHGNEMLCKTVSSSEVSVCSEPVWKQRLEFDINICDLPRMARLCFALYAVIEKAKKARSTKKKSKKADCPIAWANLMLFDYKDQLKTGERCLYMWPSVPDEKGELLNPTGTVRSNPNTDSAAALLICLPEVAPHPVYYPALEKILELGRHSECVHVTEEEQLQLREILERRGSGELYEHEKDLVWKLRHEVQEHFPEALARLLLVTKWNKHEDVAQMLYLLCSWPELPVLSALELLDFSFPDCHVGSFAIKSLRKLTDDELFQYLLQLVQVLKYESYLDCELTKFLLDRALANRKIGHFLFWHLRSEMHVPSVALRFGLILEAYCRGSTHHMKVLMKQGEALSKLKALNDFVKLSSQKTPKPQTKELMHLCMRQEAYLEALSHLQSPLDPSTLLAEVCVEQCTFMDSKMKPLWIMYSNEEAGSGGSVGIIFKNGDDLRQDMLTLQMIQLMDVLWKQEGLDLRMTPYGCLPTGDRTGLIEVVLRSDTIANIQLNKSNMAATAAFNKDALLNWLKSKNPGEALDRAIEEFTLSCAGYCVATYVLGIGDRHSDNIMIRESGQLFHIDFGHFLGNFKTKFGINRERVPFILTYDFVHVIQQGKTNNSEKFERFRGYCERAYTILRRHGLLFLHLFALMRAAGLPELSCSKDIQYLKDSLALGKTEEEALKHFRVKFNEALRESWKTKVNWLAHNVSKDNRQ
Description: as §1, §2

[6] = molecular target: T4, PIK3Cα_h (Homo sapiens, UniProt P42336); assay: Enzyme binding assay (KINOMEscan), PIK3Cα; settings: DiscoveRx
T4 construct: purchased DiscoveRx Corporation
Description: as §1, §2

[7] = molecular target: T5, MTOR_h (Homo sapiens, UniProt P42345); assay: Enzyme binding assay (KINOMEscan), MTOR; settings: DiscoveRx
T5 construct: purchased DiscoveRx Corporation
Description: as §1, §2

T1 sequence (P48736 whole entry): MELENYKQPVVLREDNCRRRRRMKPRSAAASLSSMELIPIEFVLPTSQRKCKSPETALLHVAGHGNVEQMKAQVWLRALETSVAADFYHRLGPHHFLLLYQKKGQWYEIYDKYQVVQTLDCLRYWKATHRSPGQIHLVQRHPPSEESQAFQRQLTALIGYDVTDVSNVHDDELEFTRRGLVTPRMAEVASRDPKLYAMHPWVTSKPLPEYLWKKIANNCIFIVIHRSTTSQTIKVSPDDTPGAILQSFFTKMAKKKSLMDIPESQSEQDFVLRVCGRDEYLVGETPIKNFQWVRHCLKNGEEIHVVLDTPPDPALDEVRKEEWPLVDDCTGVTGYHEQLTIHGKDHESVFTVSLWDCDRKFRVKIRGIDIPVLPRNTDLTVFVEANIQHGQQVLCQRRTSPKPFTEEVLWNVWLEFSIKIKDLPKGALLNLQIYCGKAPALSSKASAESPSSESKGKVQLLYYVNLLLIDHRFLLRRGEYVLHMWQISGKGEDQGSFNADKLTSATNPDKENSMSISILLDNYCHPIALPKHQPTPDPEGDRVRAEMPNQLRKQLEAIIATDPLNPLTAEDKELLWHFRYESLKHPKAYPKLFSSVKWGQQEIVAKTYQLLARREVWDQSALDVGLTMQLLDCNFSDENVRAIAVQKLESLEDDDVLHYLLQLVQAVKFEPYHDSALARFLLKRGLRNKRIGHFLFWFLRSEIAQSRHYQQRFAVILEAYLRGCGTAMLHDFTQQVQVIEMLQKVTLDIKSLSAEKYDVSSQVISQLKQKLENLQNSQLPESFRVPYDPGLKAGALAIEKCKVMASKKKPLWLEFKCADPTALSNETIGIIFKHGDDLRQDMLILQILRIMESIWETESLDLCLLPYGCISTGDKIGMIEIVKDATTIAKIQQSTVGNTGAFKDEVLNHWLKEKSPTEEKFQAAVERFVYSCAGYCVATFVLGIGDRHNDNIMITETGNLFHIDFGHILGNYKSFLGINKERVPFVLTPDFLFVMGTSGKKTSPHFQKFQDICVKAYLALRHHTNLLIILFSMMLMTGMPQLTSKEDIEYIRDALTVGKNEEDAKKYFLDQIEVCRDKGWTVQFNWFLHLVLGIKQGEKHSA
T2 sequence (P42338 whole entry): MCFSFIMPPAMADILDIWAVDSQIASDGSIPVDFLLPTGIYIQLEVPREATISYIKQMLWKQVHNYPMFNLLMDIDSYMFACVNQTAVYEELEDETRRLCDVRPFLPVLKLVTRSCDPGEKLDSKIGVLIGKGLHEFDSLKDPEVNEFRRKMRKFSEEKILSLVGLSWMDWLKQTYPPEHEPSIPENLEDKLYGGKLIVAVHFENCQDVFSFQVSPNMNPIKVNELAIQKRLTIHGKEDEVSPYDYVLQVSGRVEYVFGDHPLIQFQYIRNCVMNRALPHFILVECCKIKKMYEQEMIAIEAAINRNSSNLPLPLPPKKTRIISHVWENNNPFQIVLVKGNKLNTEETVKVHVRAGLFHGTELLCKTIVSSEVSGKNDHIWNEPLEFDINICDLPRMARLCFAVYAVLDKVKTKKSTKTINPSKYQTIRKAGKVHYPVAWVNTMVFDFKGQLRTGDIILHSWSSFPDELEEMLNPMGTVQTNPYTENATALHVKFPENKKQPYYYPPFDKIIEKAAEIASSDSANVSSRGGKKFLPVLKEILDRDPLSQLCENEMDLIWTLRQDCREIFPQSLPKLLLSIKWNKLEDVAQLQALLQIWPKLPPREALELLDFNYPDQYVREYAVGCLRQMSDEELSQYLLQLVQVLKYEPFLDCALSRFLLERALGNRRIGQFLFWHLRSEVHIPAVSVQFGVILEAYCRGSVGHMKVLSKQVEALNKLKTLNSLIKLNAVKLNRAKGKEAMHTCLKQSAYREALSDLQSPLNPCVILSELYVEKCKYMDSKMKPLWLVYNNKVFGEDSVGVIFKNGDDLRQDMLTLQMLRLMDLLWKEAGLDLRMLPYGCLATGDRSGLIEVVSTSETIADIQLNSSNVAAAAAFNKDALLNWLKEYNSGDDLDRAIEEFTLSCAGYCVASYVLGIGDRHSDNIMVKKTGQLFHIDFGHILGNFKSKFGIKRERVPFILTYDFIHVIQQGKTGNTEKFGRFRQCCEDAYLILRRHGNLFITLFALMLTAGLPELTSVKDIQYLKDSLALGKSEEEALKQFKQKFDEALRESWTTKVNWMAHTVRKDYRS
T4 sequence (P42336 whole entry): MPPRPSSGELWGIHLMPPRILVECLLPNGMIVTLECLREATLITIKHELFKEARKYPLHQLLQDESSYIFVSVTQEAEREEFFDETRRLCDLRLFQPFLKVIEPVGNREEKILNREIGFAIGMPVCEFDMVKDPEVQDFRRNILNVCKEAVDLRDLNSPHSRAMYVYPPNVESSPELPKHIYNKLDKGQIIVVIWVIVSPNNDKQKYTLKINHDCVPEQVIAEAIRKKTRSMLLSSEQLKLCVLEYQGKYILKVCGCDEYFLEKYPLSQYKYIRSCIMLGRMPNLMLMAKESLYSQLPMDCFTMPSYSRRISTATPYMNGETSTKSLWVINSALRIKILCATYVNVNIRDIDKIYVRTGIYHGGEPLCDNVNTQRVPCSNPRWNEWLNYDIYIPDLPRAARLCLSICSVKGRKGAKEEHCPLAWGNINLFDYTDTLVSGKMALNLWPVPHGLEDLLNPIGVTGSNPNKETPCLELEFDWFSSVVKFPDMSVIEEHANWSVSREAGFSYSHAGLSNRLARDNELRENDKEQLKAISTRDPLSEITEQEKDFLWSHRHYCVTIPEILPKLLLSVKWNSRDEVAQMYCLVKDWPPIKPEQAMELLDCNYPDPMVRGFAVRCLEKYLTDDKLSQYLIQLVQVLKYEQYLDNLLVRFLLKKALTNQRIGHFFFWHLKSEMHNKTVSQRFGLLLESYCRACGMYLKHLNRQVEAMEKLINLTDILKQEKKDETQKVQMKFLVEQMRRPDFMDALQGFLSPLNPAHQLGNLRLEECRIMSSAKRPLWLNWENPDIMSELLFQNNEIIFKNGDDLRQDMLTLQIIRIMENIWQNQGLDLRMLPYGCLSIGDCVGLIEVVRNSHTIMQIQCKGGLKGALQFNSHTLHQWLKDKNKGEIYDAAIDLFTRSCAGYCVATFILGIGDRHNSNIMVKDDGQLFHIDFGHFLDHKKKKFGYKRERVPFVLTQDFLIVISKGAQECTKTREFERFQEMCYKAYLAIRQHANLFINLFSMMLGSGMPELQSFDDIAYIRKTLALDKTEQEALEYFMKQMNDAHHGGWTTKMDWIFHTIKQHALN

| Kd [1] | IC50 ([2]; Homo sapiens, PC-3, 1 h) | melting point | Kd [3] | IC50 [4] | Kd [5] | Kd [6] | Kd [7] | IC50 [2] | IC50 ([4]; Homo sapiens, PC-3, 1 h) | Structure (SMILES) |
| --- | --- | --- | --- | --- | --- | --- | --- | --- | --- | --- |
| 16600 nM | > 513 nM | 160 °C | 9 nM | ~72 nM | 1480 nM | 2820 nM | > 30200 nM |  |  | CC(Nc1cncc(F)c1)c1cc(C(=O)N2CC3(C2)CS(=O)(=O)C3)cc2ncc(N3CCOCC3)nc12 (single isomer, unassigned) [Compound 31] |
| > 30200 nM |  | 180 °C | 5490 nM | > 513 nM | 22400 nM | > 30200 nM | > 30200 nM | > 513 nM |  | CC(Nc1cncc(F)c1)c1cc(C(=O)N2CC3(C2)CS(=O)(=O)C3)cc2ncc(N3CCOCC3)nc12 (single isomer, unassigned) [Compound 32] |
| 3890 nM |  | 194 °C | 0.4 nM | 7 nM | 166 nM | 2190 nM | > 30200 nM | 14 nM |  | CC(Nc1cncc(F)c1)c1cc(C(=O)NCCN(C)C)cc2ncc(N3CCOCC3)nc12 (single isomer, unassigned) [Compound 34] |
| 4790 nM |  | 190 °C | 8 nM | > 513 nM | 1440 nM | 15500 nM | 12000 nM | > 513 nM |  | CC(Nc1cncc(F)c1)c1cc(C(=O)NCCN(C)C)cc2ncc(N3CCOCC3)nc12 (single isomer, unassigned) [Compound 35] |
| 20900 nM |  | 177 °C | 8 nM | 59 nM | 1410 nM | 11500 nM | > 30200 nM | 11 nM |  | CN(C)CCNC(=O)c1cc(C2CCCN2c2ccnc(F)c2)c2nc(N3CCOCC3)cnc2c1 (single isomer, unassigned) [Compound 38] |
| > 30200 nM |  |  | 1070 nM | > 513 nM | 31600 nM | 19100 nM | 19500 nM | > 513 nM |  | CN(C)CCNC(=O)c1cc(C2CCCN2c2ccnc(F)c2)c2nc(N3CCOCC3)cnc2c1 (single isomer, unassigned) [Compound 39] |
| 1050 nM | 2 nM |  | 0.2 nM |  | 120 nM |  | > 30200 nM |  | 2 nM | CN(C)CCNC(=O)c1cc(C2CCCN2c2cncc(F)c2)c2nc(N3CCOCC3)cnc2c1 (single isomer, unassigned) [Compound 40] |
| > 30200 nM | > 513 nM | 80 °C | 42 nM |  | 1410 nM | 16600 nM | > 30200 nM |  | > 513 nM | CN(C)C(=O)c1cc(C2CCCN2c2cc(Cl)ncn2)c2nc(N3CCOCC3)cnc2c1 (stereo not drawn) [Compound 1] |
| 20900 nM | > 513 nM | 138 °C | 162 nM |  | 5890 nM | > 30200 nM | > 30200 nM |  | > 513 nM | Cc1cc(N2CCCC2c2cc(C(=O)N(C)C)cc3ncc(N4CCOCC4)nc23)cc(C)n1 (stereo not drawn) [Compound 2] |
| > 30200 nM | > 513 nM | 186 °C | 2040 nM |  | 25100 nM | > 30200 nM | > 30200 nM |  | > 513 nM | Cc1cc(N2CCCC2c2cc(C(=O)N(C)C)cc3ncc(N4CCOCC4)nc23)nc(C)n1 (stereo not drawn) [Compound 3] |
| > 30200 nM | > 513 nM | 110 °C | 1550 nM |  | 22400 nM | 28800 nM | > 30200 nM |  | > 513 nM | Cc1nccc(N2CCCC2c2cc(C(=O)N(C)C)cc3ncc(N4CCOCC4)nc23)n1 (stereo not drawn) [Compound 4] |
|  |  | 240 °C |  |  |  |  |  |  |  | COC(=O)c1cc(C(C)Nc2cncc(F)c2)c2nc(N3CCOCC3)cnc2c1 (stereo not drawn) [Compound 6] |
|  | > 513 nM | 198 °C |  |  |  |  |  |  | > 513 nM | O=C(NCCO)c1cc(NCc2cncc(F)c2)c2nc(N3CCOCC3)cnc2c1 [Compound 29] |
| 1050 nM | ~17 nM |  | 0.8 nM |  | 52 nM | 209 nM | > 30200 nM |  | 3 nM | CN(C)C(=O)c1cc(C2CCCN2c2cncc(F)c2)c2nc(N3CCOCC3)cnc2c1 (stereo not drawn) [Compound 41] |
| 2630 nM | 2 nM |  | 0.5 nM |  | 46 nM | 646 nM | > 30200 nM |  | 1 nM | CN(C)CCN(C)C(=O)c1cc(C2CCCN2c2cncc(F)c2)c2nc(N3CCOCC3)cnc2c1 (stereo not drawn) [Compound 42] |
| 457 nM | 7 nM |  | 0.3 nM |  | 32 nM | 479 nM | 12300 nM |  | 4 nM | CN(C)CCNC(=O)c1cc(C2CCCN2c2cc(Cl)cc(Cl)n2)c2nc(N3CCOCC3)cnc2c1 (stereo not drawn) [Compound 45] |
| 19500 nM | 102 nM |  | 2 nM |  | 550 nM | 13500 nM | > 30200 nM |  | 66 nM | CN(C)CCNC(=O)c1cc(C2CCCN2c2ccnc(Cl)c2)c2nc(N3CCOCC3)cnc2c1 (stereo not drawn) [Compound 46] |
| 20900 nM | > 513 nM |  | 32 nM |  | 1950 nM | 17000 nM | 21900 nM |  | > 513 nM | O=C(NCCO)c1cc(C2CCCN2c2ccnc(Cl)c2)c2nc(N3CCOCC3)cnc2c1 (stereo not drawn) [Compound 47] |
| > 30200 nM | > 513 nM |  | 28 nM |  | 2460 nM | > 30200 nM | > 30200 nM |  | > 513 nM | CNCCOCCN(C)C(=O)c1cc(C2CCCN2c2ccnc(Cl)c2)c2nc(N3CCOCC3)cnc2c1 (stereo not drawn) [Compound 49] |
| 3310 nM | 19 nM |  | 0.9 nM |  | 162 nM | 1660 nM | > 30200 nM |  | 12 nM | CN(C)CCNC(=O)c1cc(C2CCCN2c2cncc(Cl)n2)c2nc(N3CCOCC3)cnc2c1 (stereo not drawn) [Compound 50] |
| > 30200 nM | > 513 nM |  | 20 nM |  | 3470 nM | 9120 nM | > 30200 nM |  | > 513 nM | CN(C)CCNC(=O)c1cc(C2CCCN2c2cncc(Br)n2)c2nc(N3CCOCC3)cnc2c1 (stereo not drawn) [Compound 51] |
|  | > 513 nM |  |  |  |  |  |  |  | > 513 nM | CN(C)CCNC(=O)c1cc(C2CCCN2c2cncc(F)n2)c2nc(N3CCOCC3)cnc2c1 (stereo not drawn) [Compound 52] |
